Laboratory results reported in article PMC3588144 (Molecular cancer therapeutics, 2012).

How the values were obtained:
[1] = tested on: MV4-11 cells (FLT3-ITD); type: cell-based, human; conditions: 100 nmol/L for 3 hours
[2] = tested on: PC3 xenograft
[3] = tested on: NCI-N87 xenograft; assay: HER2 overexpressing gastric NCI-N87 xenograft model; conditions: 25 mg/kg i.v.; not statistically significant
[4] = tested on: pAkt(S473) and pS6(S240/244) in PC3 tumor tissue; conditions: mouse, in vivo
[5] = tolerability / maximum-tolerated dose; type: in vivo, mice; conditions: for maximum observed body weight loss: 14 days, male Balb/C nude mice
[6] = pharmacokinetics after a single oral dose; set-up: species or system mice; conditions: mouse, in vivo
[7] = tested on: pS6 and pAkt in COLO-205 tumor tissue; assay: pharmacodynamic markers in COLO-205 tumors; type: in vivo, mice; conditions: 25 mg/kg, 1h after the last dose on day 17
[8] = tested on: 436 cancer cell lines; type: cell-based, human

Structure (SMILES): CO[C@H]1C[C@@H]2CC[C@@H](C)[C@@](O)(O2)C(=O)C(=O)N2CCCC[C@H]2C(=O)O[C@H]([C@H](C)C[C@@H]2CC[C@@H](OCCO)[C@H](OC)C2)CC(=O)[C@H](C)/C=C(\C)[C@@H](O)[C@@H](OC)C(=O)[C@H](C)C[C@H](C)/C=C/C=C/C=C/1C [Everolimus, everolimus, reference compound]
- inhibition of phosphorylation of Akt [1]: not able to inhibit
- tumor growth inhibition (TGI) ([2]; 5 mg/kg p.o. daily, 28 days): 133%

Structure (SMILES): O=c1[nH]cc(F)c(=O)[nH]1 [5-FU, 5-fluorouracil]
- tumor growth inhibition [3]: 32%

Structure (SMILES): Cc1nc2c(-c3cnc(N)nc3)nc(N3CCOCC3)nc2n1C(C)C [VS-5584, 5-(9-isopropyl-8-methyl-2-morpholin-4-yl-9H-purin-6-yl)-pyrimidin-2-ylamine]
- pAkt(S473) blocked [4]: ≥ 90%
- pS6(S240/244) blocked [4]: ≥ 90%
- maximum observed body weight loss ([5]; 25 mg/kg once daily, data not shown): 3.1%
- maximum observed body weight loss ([5]; 35 mg/kg once daily, data not shown): 13.9%
- peripheral blood cell counts ([5]; 25 and 35 mg/kg, data not shown): remained within normal levels without significant changes
- tolerability of a single dose ([5]; single dose up to 100 mg/kg): well tolerated
- Tmax [6]: 0.9 h
- half-life [6]: 10 h
- weight loss (mean) ([2]; 11 and 25 mg/kg, day 27): 4.7%
- reduction of pAkt in tumor [7]: 85%
- reduction of pS6 in tumor [7]: 95%

Structure (SMILES): CN(C)C/C=C/C(=O)Nc1cc2c(Nc3ccc(F)c(Cl)c3)ncnc2cc1O[C@H]1CCOC1 [BIBW2992]
- sensitivity of ERBB2-amplified cells with coincident PIK3CA mutations [8]: did not observe increased sensitivity
